This note sets out measurements from BindingDB's records for doi:10.1016/s0960-894x(01)00096-8 (Seoul National University, 2001).

Target in the first experiment: not listed separately
Kind of experiment: Inhibitory concentration against methionyl-tRNA synthetase was determined by measuring decrease of the aminoacylation product [35S]- methionyl tRNA of Escherichia coli.
In turn, `COc1cc(C2=N[C@@H](COC(=O)[C@@H](N)CCSC)CO2)ccc1O` [(S)-1-[(R)-2-(4-Hydroxy-3-methoxy-phenyl)-4,5-dihydro-oxazol-4-ylmethoxycarbonyl]-3-methylsulfanyl-propyl-ammonium] gave an IC50 of 39 µM. This counts as double-digit micromolar.

The next experiment deals with Isoleucine--tRNA ligase (Escherichia coli) (UniProt P00956). Kind of experiment: Inhibitory concentration against isoleucyl-tRNA synthetase was determined by measuring decrease of the aminoacylation product [3H]- isoleucyl tRNA of Escherichia coli.
Sequence of Isoleucine--tRNA ligase (Escherichia coli) (P00956 whole entry, looked up): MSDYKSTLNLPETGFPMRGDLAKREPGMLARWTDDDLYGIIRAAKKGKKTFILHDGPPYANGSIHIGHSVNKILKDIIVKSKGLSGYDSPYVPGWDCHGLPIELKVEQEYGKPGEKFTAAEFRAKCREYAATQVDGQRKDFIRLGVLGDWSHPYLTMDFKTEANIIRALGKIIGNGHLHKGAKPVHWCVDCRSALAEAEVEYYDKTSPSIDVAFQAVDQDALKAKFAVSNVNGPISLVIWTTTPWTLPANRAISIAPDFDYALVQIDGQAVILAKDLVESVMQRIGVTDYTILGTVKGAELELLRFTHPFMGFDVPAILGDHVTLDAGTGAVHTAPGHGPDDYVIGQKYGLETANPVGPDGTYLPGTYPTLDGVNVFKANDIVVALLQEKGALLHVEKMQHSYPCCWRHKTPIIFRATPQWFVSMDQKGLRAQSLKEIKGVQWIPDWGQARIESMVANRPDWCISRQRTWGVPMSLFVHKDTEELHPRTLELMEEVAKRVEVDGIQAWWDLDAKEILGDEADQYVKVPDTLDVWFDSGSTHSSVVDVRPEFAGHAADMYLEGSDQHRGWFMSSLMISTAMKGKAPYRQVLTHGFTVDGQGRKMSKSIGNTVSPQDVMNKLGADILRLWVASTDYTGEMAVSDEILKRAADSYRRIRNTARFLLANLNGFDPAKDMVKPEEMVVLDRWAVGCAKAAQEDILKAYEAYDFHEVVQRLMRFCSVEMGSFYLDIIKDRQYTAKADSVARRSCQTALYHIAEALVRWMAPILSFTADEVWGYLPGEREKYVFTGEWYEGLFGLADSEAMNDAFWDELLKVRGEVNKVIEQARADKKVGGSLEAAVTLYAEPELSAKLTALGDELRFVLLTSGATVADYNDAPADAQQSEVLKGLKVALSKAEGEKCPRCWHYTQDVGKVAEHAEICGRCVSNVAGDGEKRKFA
Regarding `CCC(C)[C@H](N)C(=O)OCCN(O)C(=O)Cc1ccc(OC)c(O)c1` (stereo partly drawn) [(S)-1-(2-{Hydroxy-[2-(3-hydroxy-4-methoxy-phenyl)-acetyl]-amino}-ethoxycarbonyl)-2-methyl-butyl-ammonium], the IC50 was 21 µM.

With `CCC(C)[C@H](N)C(=O)OCCNC(=O)Cc1ccc(O)c(OC)c1` (stereo partly drawn) [(S)-1-{2-[2-(4-Hydroxy-3-methoxy-phenyl)-acetylamino]-ethoxycarbonyl}-2-methyl-butyl-ammonium], it took 45 µM to reach half-maximal inhibition (IC50). Against the preceding compound, the IC50 is about 2.1-fold higher.

For `CCC(C)[C@H](N)C(=O)OCCN(O)C(=O)c1ccc(O)c(OC)c1` (stereo partly drawn) [(S)-1-{2-[Hydroxy-(4-hydroxy-3-methoxy-benzoyl)-amino]-ethoxycarbonyl}-2-methyl-butyl-ammonium], the half-inhibitory concentration (IC50) came out at 12.8 µM.

On to `CCC(C)[C@H](N)C(=O)OC[C@@H]1COC(c2ccc(O)c(OC)c2)=N1` (stereo partly drawn) [(S)-1-[(S)-2-(4-Hydroxy-3-methoxy-phenyl)-4,5-dihydro-oxazol-4-ylmethoxycarbonyl]-2-methyl-butyl-ammonium], for which the IC50 worked out at 38.6 µM.

Turning to `CCC(C)[C@H](N)C(=O)OCC1CC(c2ccc(O)c(OC)c2)=NO1` (stereo partly drawn) [(S)-1-[3-(4-Hydroxy-3-methoxy-phenyl)-4,5-dihydro-isoxazol-5-ylmethoxycarbonyl]-2-methyl-butyl-ammonium], the IC50 is 79 µM.

As to `CCC(C)[C@H](N)C(=O)OCCN(O)C(=O)Cc1ccc(O)c(OC)c1` (stereo partly drawn) [(S)-1-(2-{Hydroxy-[2-(4-hydroxy-3-methoxy-phenyl)-acetyl]-amino}-ethoxycarbonyl)-2-methyl-butyl-ammonium], the IC50 came out at 228 µM.

In the case of `CCC(C)[C@H](N)C(=O)OCCNC(=O)c1ccc(O)c(OC)c1` (stereo partly drawn) [(S)-1-[2-(4-Hydroxy-3-methoxy-benzoylamino)-ethoxycarbonyl]-2-methyl-butyl-ammonium], half-maximal inhibition (IC50) required 64.4 µM.

The compound `CCC(C)[C@H](N)C(=O)OCCNC(=O)c1ccc(OC)c(O)c1` (stereo partly drawn) [(S)-1-[2-(3-Hydroxy-4-methoxy-benzoylamino)-ethoxycarbonyl]-2-methyl-butyl-ammonium] had an IC50 of 106 µM.

Regarding `CCC(C)[C@H](N)C(=O)OCCNC(=O)Cc1ccc(OC)c(O)c1` (stereo partly drawn) [(S)-1-{2-[2-(3-Hydroxy-4-methoxy-phenyl)-acetylamino]-ethoxycarbonyl}-2-methyl-butyl-ammonium], it took 56.5 µM to reach half-maximal inhibition (IC50).

Compound `CCC(C)[C@H](N)C(=O)OCCN(O)C(=O)c1ccc(OC)c(O)c1` (stereo partly drawn) [(S)-1-{2-[Hydroxy-(3-hydroxy-4-methoxy-benzoyl)-amino]-ethoxycarbonyl}-2-methyl-butyl-ammonium] yielded a 50% inhibitory concentration (IC50) of 4.5 µM.

`CCC(C)[C@H](N)C(=O)OCC1CC(c2ccc(OC)c(O)c2)=NO1` (stereo partly drawn) [(S)-1-[3-(3-Hydroxy-4-methoxy-phenyl)-4,5-dihydro-isoxazol-5-ylmethoxycarbonyl]-2-methyl-butyl-ammonium] yielded an IC50 of 57.6 µM.

Another experiment shares this target. Described as above. This is another data set of the same source.
`CCC(C)[C@H](N)C(=O)OC[C@H]1COC(c2ccc(O)c(OC)c2)=N1` (stereo partly drawn) [(S)-1-[(R)-2-(4-Hydroxy-3-methoxy-phenyl)-4,5-dihydro-oxazol-4-ylmethoxycarbonyl]-2-methyl-butyl-ammonium] came in with an IC50 of 50 µM.

The target of the next experiment is Methionine--tRNA ligase (Escherichia coli) (UniProt P00959). Kind of experiment: Inhibitory concentration against methionyl-tRNA synthetase was determined by measuring decrease of the aminoacylation product [35S]- methionyl tRNA of Escherichia coli.
Sequence of Methionine--tRNA ligase (Escherichia coli) (P00959 whole entry, looked up): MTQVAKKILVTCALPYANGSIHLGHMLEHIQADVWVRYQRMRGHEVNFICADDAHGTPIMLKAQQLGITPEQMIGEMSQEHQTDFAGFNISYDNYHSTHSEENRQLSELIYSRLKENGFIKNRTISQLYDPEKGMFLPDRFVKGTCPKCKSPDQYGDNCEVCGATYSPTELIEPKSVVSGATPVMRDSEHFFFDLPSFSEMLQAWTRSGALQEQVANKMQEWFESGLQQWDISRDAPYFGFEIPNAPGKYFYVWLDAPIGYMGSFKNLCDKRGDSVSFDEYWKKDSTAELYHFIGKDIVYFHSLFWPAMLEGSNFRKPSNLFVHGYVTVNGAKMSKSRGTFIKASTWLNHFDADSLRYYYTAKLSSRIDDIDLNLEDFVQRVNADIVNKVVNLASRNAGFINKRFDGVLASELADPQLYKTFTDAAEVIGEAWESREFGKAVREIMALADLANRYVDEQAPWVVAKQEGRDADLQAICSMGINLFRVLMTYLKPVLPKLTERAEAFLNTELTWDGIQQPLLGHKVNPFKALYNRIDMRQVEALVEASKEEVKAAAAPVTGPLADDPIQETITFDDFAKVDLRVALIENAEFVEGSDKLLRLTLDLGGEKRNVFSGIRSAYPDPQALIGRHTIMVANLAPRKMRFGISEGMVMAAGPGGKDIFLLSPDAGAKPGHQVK
For `COc1cc(C(=O)N(O)CCOC(=O)[C@@H](N)CCSC)ccc1O` [(S)-1-{2-[Hydroxy-(4-hydroxy-3-methoxy-benzoyl)-amino]-ethoxycarbonyl}-3-methylsulfanyl-propyl-ammonium], inhibition was half-maximal at 32.5 µM (IC50).

Consider `COc1cc(C(=O)NCCOC(=O)[C@@H](N)CCSC)ccc1O` [(S)-1-[2-(4-Hydroxy-3-methoxy-benzoylamino)-ethoxycarbonyl]-3-methylsulfanyl-propyl-ammonium], for which the IC50 came to 60 µM.

Regarding `COc1ccc(C2=NOC(COC(=O)[C@@H](N)CCSC)C2)cc1O` (stereo partly drawn) [(S)-1-[3-(3-Hydroxy-4-methoxy-phenyl)-4,5-dihydro-isoxazol-5-ylmethoxycarbonyl]-3-methylsulfanyl-propyl-ammonium], 47 µM corresponded to half-maximal inhibition (IC50).

`COc1ccc(CC(=O)N(O)CCOC(=O)[C@@H](N)CCSC)cc1O` [(S)-1-(2-{Hydroxy-[2-(3-hydroxy-4-methoxy-phenyl)-acetyl]-amino}-ethoxycarbonyl)-3-methylsulfanyl-propyl-ammonium]: inhibition was half-maximal at 87 µM (IC50).

As for `COc1cc(CC(=O)N(O)CCOC(=O)[C@@H](N)CCSC)ccc1O` [(S)-1-(2-{Hydroxy-[2-(4-hydroxy-3-methoxy-phenyl)-acetyl]-amino}-ethoxycarbonyl)-3-methylsulfanyl-propyl-ammonium], the 50% inhibitory concentration (IC50) was 128 µM.

`COc1cc(C2=N[C@H](COC(=O)[C@@H](N)CCSC)CO2)ccc1O` [(S)-1-[(S)-2-(4-Hydroxy-3-methoxy-phenyl)-4,5-dihydro-oxazol-4-ylmethoxycarbonyl]-3-methylsulfanyl-propyl-ammonium] showed a half-inhibitory concentration (IC50) of 33.5 µM. Against the preceding compound, the IC50 is about 3.8-fold lower.

As to `COc1cc(C2=NOC(COC(=O)[C@@H](N)CCSC)C2)ccc1O` (stereo partly drawn) [(S)-1-[3-(4-Hydroxy-3-methoxy-phenyl)-4,5-dihydro-isoxazol-5-ylmethoxycarbonyl]-3-methylsulfanyl-propyl-ammonium], 58 µM corresponded to half-maximal inhibition (IC50).

As to `COc1ccc(CC(=O)NCCOC(=O)[C@@H](N)CCSC)cc1O` [(S)-1-{2-[2-(3-Hydroxy-4-methoxy-phenyl)-acetylamino]-ethoxycarbonyl}-3-methylsulfanyl-propyl-ammonium], half-maximal inhibition (IC50) required 164 µM.

In the case of `COc1ccc(C(=O)N(O)CCOC(=O)[C@@H](N)CCSC)cc1O` [(S)-1-{2-[Hydroxy-(3-hydroxy-4-methoxy-benzoyl)-amino]-ethoxycarbonyl}-3-methylsulfanyl-propyl-ammonium], the IC50 was found to be 72 µM.

`COc1ccc(C(=O)NCCOC(=O)[C@@H](N)CCSC)cc1O` [(S)-1-[2-(3-Hydroxy-4-methoxy-benzoylamino)-ethoxycarbonyl]-3-methylsulfanyl-propyl-ammonium] had an IC50 of 78 µM.

With `COc1cc(CC(=O)NCCOC(=O)[C@@H](N)CCSC)ccc1O` [(S)-1-{2-[2-(4-Hydroxy-3-methoxy-phenyl)-acetylamino]-ethoxycarbonyl}-3-methylsulfanyl-propyl-ammonium], half-maximal inhibition (IC50) was put at 94 µM. The IC50 values of the last two compounds are within 1.5-fold of each other.

For orientation: IC50 means the point on the concentration scale where inhibition reaches its midpoint.
